Results taken from patent publication US20230339886A1 (University of Florida Research Foundation, Incorporated, priority 2020, published 2023).

The molecules below were run against T1, REV-ERBα LBD (human; residues 281-614 Δ324-422) (Homo sapiens, UniProt P20393, DEL324-422) (assay: TR-FRET corepressor interaction assay (REV-ERBα LBD, FITC-SMRT peptide)). Details: FITC-SMRT peptide, read-out: REVERBα agonism (EC50 class, FRET assay).
T1 construct: 6×Histag-REV-ERBα LBD (human; residues 281-614 Δ324-422); made in house; host or cells: Escherichia coli
T1 sequence (P20393 with tags, fused parts or gaps DEL324-422): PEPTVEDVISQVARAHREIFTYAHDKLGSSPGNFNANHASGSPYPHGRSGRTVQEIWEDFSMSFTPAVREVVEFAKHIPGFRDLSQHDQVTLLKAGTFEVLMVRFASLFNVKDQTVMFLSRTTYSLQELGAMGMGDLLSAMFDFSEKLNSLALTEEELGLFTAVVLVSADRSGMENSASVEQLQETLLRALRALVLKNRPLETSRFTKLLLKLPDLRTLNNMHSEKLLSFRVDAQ
T1 sequence (Q9Y618 2335-2356 partner limits assumed): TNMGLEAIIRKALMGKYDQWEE
Format: biochemical
How it was run: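 Compound serial dilutions (in DMSO, triplicate) incubated 2 h at 4 °C; Tb donor excited at 340 nm, emission read at 495 nm and FITC acceptor at 520 nm. TR-FRET ratio (520/495 nm) plotted against ligand concentration and fitted to a sigmoidal dose-response curve.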
In the case of `CCOC(=O)[C@@H](NS(=O)(=O)C1CC1)c1cn(CC(C)(C)C)c2cc(-c3ccccc3C(F)(F)F)ccc12` [Example 430, ethyl (S)-2-(cyclopropanesulfonamido)-2-(1-neopentyl-6-(2-(trifluoromethyl)phenyl)-1H-indol-3-yl)acetate], the EC50 is reported as over 3000 nM.
`CC(NS(=O)(=O)C1CCC1)c1cn(CC(C)(C)C)c2cc(-c3ccccc3C(F)(F)F)ccc12` (stereo not shown) [Example 507, N-(1-(1-neopentyl-6-(2-(trifluoromethyl)phenyl)-1H-indol-3-yl)ethyl)cyclobutanesulfonamide] gave an EC50 of under 500 nM.

Same assay, conditions: Table 2, read-out: REVERBα agonism (EC50 class, FRET assay)
`CC(C)Cn1cc(CCNS(=O)(=O)N(C)C)c2ccc(-c3ncco3)cc21` [Compound 67, dimethyl({2-[1-(2-methylpropyl)-6-(1,3-oxazol-2-yl)-1H-indol-3-yl]ethyl}sulfamoyl)amine] showed an EC50 of 500 to 3000 nM.
In the case of `CC(C)Cn1cc([C@H](NS(=O)(=O)C2CC2)C(F)(F)F)c2ccc(Br)cc21` [Example 306, (S)—N-(1-(6-bromo-1-isobutyl-1H-indol-3-yl)-2,2,2-trifluoroethyl)cyclopropanesulfonamide], the EC50 is reported as under 500 nM.
For `CC(C)c1ccc2c([C@H](NS(=O)(=O)C3CCC3)C(F)(F)F)cn(CC(C)(C)C)c2c1` [Example 415, (S)—N-(2,2,2-trifluoro-1-(6-isopropyl-1-neopentyl-1H-indol-3-yl)ethyl)cyclobutanesulfonamide], the EC50 was 500 to 3000 nM.
`CC(C)S(=O)(=O)NCCc1cn(CC(C)(C)C)c2cc(-c3ccncc3Cl)c(F)cc12` [Compound 290] gave an EC50 of under 500 nM.
Work on `CC(C)Cn1cc(CC(C)NS(=O)(=O)C(C)C)c2ccc(-c3ccncc3)cc21` (stereo not shown) [Compound 275] yielded an EC50 of 500 to 3000 nM.
With `O=S(=O)(NCc1cn(CC2CCCC2)c2cc(-c3ccccc3C(F)(F)F)c(F)cc12)C1CC1` [Compound 280] the EC50 was under 500 nM.
In the case of `CC(C)Cn1cc(CNS(=O)(=O)C(C)C)c2cc(F)c(-c3ccncc3Cl)cc21` [Compound 268], the EC50 is reported as under 500 nM.
Molecule `CC(C)Cn1cc(CCNS(=O)(=O)N(C)C)c2ccc(-n3cccn3)cc21` [Example 92, N-{2-[6-(1H-pyrazol-1-yl)-1-(2-methylpropyl)-1H-indol-3-yl]ethyl}-N,N-dimethylsulfuric diamide] has an EC50 of 500 to 3000 nM.
For `CC(C)S(=O)(=O)NCCc1cn(CC2CCCC2)c2cc(-c3ccncc3)ccc12` [Compound 272], the EC50 was under 500 nM.
`CC(C)Cn1cc(CN(C)S(=O)(=O)N(C)C)c2ccc(-c3ccncc3)cc21` [Compound 246] was tested, and the EC50 was 500 to 3000 nM.
Work on `CC(C)Cn1cc([C@H]2C[C@H]2NS(=O)(=O)C(C)C)c2ccc(-c3ccncc3)cc21` [Compound 258] yielded an EC50 of under 500 nM.
With `CN(C)S(=O)(=O)NCCc1cn(Cc2cccc(Cl)c2)c2cc(-c3ccncc3)ccc12` [Example 141, N-{2-[6-(pyridin-4-yl)-1-(3-chlorobenzyl)-1H-indol-3-yl]ethyl}-N,N-dimethylsulfuric diamide] the EC50 was under 500 nM.
For `N#CC1(Cn2cc([C@H](NS(=O)(=O)C3CCC3)C(F)(F)F)c3ccc(-c4ccccc4C(F)(F)F)nc32)CC1` [Example 414, (S)—N-(1-(1-((1-cyanocyclopropyl)methyl)-6-(2-(trifluoromethyl)phenyl)-1H-pyrrolo[2,3-b]pyridin-3-yl)-2,2,2-trifluoroethyl)cyclobutanesulfonamide], the EC50 was under 500 nM.
`CC(C)(C)Cn1cc([C@H](NS(=O)(=O)C2CCC2)C(F)(F)F)c2ccc(C(F)(F)F)cc21` [Example 416, (S)—N-(2,2,2-trifluoro-1-(1-neopentyl-6-(trifluoromethyl)-1H-indol-3-yl)ethyl)cyclobutanesulfonamide] was tested, and the EC50 was over 3000 nM.
With `CC(C)Cn1cc(CCS(=O)(=O)C(C)C)c2ccc(-c3ccncc3)cc21` [Compound 248] the EC50 was under 500 nM.
With `COc1ccc2cc(-c3ccc4c(c3)c(CC(C)(C)C)cn4CCNS(=O)(=O)C3CC3)ccc2c1` [Compound 220] the EC50 was over 3000 nM.
For `CC(C)c1ccc2c([C@H](NS(=O)(=O)C3CC3)C(F)(F)F)cn(CC(C)(C)C)c2c1` [Example 335, (S)—N-(2,2,2-trifluoro-1-(6-isopropyl-1-neopentyl-1H-indol-3-yl)ethyl)cyclopropanesulfonamide], the EC50 was under 500 nM.
